Values after ≈ are worked out from the molar mass of the structure shown.
Experiments:
[1] = biological target: T1, Transcription intermediary factor 1-alpha (Homo sapiens, UniProt O15164); experiment: Inhibition of recombinant human His-tagged TRIM24-PHD/bromodomain expressed in Escherichia coli strains BL21 (DE3) cells using biotinylated H3K23ac (1 to 33 residues) peptide after 1 hr by AlphaScreen assay
T1 sequence (O15164 whole entry): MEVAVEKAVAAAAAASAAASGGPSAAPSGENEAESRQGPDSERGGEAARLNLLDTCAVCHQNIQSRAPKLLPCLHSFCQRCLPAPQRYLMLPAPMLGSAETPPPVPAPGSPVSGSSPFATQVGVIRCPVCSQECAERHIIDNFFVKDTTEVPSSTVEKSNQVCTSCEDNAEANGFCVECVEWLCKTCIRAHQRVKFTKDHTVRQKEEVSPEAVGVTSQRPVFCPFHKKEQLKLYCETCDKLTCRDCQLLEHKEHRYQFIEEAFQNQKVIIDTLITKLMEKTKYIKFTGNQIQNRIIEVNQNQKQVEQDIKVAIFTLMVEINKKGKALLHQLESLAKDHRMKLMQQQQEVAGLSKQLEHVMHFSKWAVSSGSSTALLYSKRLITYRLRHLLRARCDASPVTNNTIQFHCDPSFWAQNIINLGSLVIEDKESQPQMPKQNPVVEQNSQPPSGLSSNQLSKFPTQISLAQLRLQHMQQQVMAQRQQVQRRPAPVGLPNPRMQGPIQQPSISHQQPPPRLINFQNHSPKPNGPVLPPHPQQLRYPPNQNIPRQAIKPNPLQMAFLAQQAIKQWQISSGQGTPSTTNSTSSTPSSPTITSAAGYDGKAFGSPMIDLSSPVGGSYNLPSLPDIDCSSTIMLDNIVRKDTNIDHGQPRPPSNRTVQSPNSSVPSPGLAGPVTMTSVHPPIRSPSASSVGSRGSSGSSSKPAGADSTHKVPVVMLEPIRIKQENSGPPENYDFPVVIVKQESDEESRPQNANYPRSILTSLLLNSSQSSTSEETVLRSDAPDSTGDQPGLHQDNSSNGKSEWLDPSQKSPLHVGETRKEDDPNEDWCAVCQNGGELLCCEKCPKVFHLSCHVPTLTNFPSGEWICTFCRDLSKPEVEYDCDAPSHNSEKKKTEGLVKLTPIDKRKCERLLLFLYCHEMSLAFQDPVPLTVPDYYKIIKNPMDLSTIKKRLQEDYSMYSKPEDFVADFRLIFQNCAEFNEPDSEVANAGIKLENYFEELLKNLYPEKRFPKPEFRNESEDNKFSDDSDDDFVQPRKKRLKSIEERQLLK

[2] = biological target: T1, Transcription intermediary factor 1-alpha; experiment: Inhibition of Flag-tagged TRIM24-PHD/bromodomain (unknown origin) expressed in human HeLa cells for 2 hrs by AlphaLisa assay; type: cell-based
[3] = Kinetic solubility of compound in phosphate buffer at pH 7
[4] = Oral bioavailability in CD1 mouse at 10 mg/kg; type: ADME, organism-based; settings: in vivo
[5] = Clearance in CD1 mouse at 1 mg/kg, iv; type: ADME, organism-based; settings: in vivo
[6] = Terminal half life in CD1 mouse at 1 mg/kg, iv; type: ADME, organism-based; settings: in vivo, read-out: beta t1/2 (converted)
[7] = Apparent permeability from apical to basolateral side in human Caco2 cells; settings: Caco-2

Compound	IC50 [1] [µM]	EC50 [2] [µM]	solubility kinetic [3] [µM]	further results
COc1ccc(S(=O)(=O)Nc2ccc3c(c2)n(C)c(=O)n3C)cc1	9.3			
CN1C(=O)CCc2cc(NS(=O)(=O)c3ccc(C4CCCCC4)cc3)ccc21	2.8			
CCCOc1cc(OCCCCN(C)C)cc(Oc2cc3c(cc2NS(=O)(=O)c2ccc(OC)c(OC)c2)n(C)c(=O)n3C)c1			76 (≈ 48.9 µg/mL)	bioavailability [4]: 29%; clearance [5]: 43 mL/min/kg; half-life [6]: 42 min
Cn1cnc(S(=O)(=O)Nc2cc3c(cc2Oc2ccc(OCc4ccccc4)cc2)n(C)c(=O)n3C)c1	2	> 33		
CCCOc1cc(OCCCCCCN)cc(Oc2cc3c(cc2NS(=O)(=O)c2ccc(OC)c(OC)c2)n(C)c(=O)n3C)c1	0.013	0.17		
COc1ccc(S(=O)(=O)Nc2cc3c(cc2Oc2cccc(OCCCCN(C)C)c2)n(C)c(=O)n3C)cc1OC	0.27	3.2	66 (≈ 38.6 µg/mL)	
CCCOc1cccc(Oc2cc3c(cc2NS(=O)(=O)c2cn(C)c(C)n2)n(C)c(=O)n3C)c1	0.053	0.95	62 (≈ 30.1 µg/mL)	
COc1ccc(S(=O)(=O)Nc2cc3c(cc2Oc2cccc(OCc4ccccc4)c2)n(C)c(=O)n3C)cc1OC	0.14	3.9	0.6 (≈ 0.345 µg/mL)	Papp A→B [7]: 21 ×10⁻⁶ cm/s
Cn1c(=O)n(C)c2cc(NS(=O)(=O)c3ccc(C4CCCCC4)cc3)ccc21	1.7			
COc1cc2c(cc1NS(=O)(=O)c1ccccc1)CCC(=O)N2C	36			
Cc1nc(-c2ccc3c(c2)CC(=O)N3C)cs1	8.5			
COc1ccc(S(=O)(=O)Nc2ccc3c(c2)CCC(=O)N3C)c(OC)c1	2.5			
CSc1ccc(S(=O)(=O)Nc2ccc3c(c2)N(C)C(=O)CC3)cc1	14			
Cc1nc(S(=O)(=O)Nc2cc3c(cc2Oc2cccc(OCc4ccccc4)c2)n(C)c(=O)n3C)cn1C	0.27	4.9		
CSc1ccc(S(=O)(=O)Nc2ccc3c(c2)CCC(=O)N3C)cc1	4.8			
CCCOc1cc(OCCCCCCN)cc(Oc2cc3c(cc2NS(=O)(=O)c2cn(C)cn2)n(C)c(=O)n3C)c1	0.01	0.17		

Second part, led by results:

IC50 [1] [µM]	EC50 [2] [µM]	solubility kinetic [3] [µM]	Compound	further results
10			COc1cc2c(cc1NS(=O)(=O)c1cccc(C#N)c1)n(C)c(=O)n2C	
23			Cn1c(=O)n(C)c2cc(NS(=O)(=O)c3ccccc3)ccc21	
1.5			COc1ccc(Oc2cc3c(cc2NS(=O)(=O)c2ccccc2)n(C)c(=O)n3C)cc1	
0.16	3		CCCCOc1cccc(Oc2cc3c(cc2NS(=O)(=O)c2cn(C)c(C)n2)n(C)c(=O)n3C)c1	
0.057		87 (≈ 43.5 µg/mL)	Cc1nc(S(=O)(=O)Nc2cc3c(cc2Oc2cccc(OCC(C)C)c2)n(C)c(=O)n3C)cn1C	
0.13	2.7	100 (≈ 51.6 µg/mL)	COCCCOc1cccc(Oc2cc3c(cc2NS(=O)(=O)c2cn(C)c(C)n2)n(C)c(=O)n3C)c1	
0.013	0.12		CCCOc1cc(OCCCN)cc(Oc2cc3c(cc2NS(=O)(=O)c2ccc(OC)c(OC)c2)n(C)c(=O)n3C)c1	
0.16	5.5		CCCOc1cc(OCCCCCCNC(=O)OC(C)(C)C)cc(Oc2cc3c(cc2NS(=O)(=O)c2cn(C)cn2)n(C)c(=O)n3C)c1	
4.9			CSc1ccc(S(=O)(=O)Nc2ccc3c(c2)n(C)c(=O)n3C)cc1	
0.18	2.3	74 (≈ 34.9 µg/mL)	CCOc1cccc(Oc2cc3c(cc2NS(=O)(=O)c2cn(C)c(C)n2)n(C)c(=O)n3C)c1	
3.7			CC(C)COc1ccc(S(=O)(=O)Nc2ccc3c(c2)CCC(=O)N3C)cc1	
0.06	1.8		CCCOc1cc(OCCCCCCO)cc(Oc2cc3c(cc2NS(=O)(=O)c2cn(C)cn2)n(C)c(=O)n3C)c1	
4			CC(C)COc1ccc(S(=O)(=O)Nc2ccc3c(c2)n(C)c(=O)n3C)cc1	
0.0083	0.059	42 (≈ 25.8 µg/mL)	CCCOc1cc(OCCCCN)cc(Oc2cc3c(cc2NS(=O)(=O)c2ccc(OC)c(OC)c2)n(C)c(=O)n3C)c1	
17			CSc1ccc(S(=O)(=O)Nc2ccc3c(c2)CC(=O)N3C)cc1	
0.11	5	0.78 (≈ 0.348 µg/mL)	CC(C)COc1cccc(Oc2cc3c(cc2NS(=O)(=O)C2CC2)n(C)c(=O)n3C)c1	
0.0079	0.12		CCCOc1cc(OCCCCN)cc(Oc2cc3c(cc2NS(=O)(=O)c2cn(C)cn2)n(C)c(=O)n3C)c1	
0.011	0.11		CCCOc1cc(OCCCCCN)cc(Oc2cc3c(cc2NS(=O)(=O)c2cn(C)cn2)n(C)c(=O)n3C)c1	
2.4	> 36	2.6 (≈ 0.849 µg/mL)	CC(C)COc1cccc(Oc2ccc3c(c2)n(C)c(=O)n3C)c1	
0.1	1.9	77 (≈ 39.5 µg/mL)	Cn1cnc(S(=O)(=O)Nc2cc3c(cc2Oc2cccc(OCC4CCOC4)c2)n(C)c(=O)n3C)c1 (configuration not stated)	
0.043	0.83	1.1 (≈ 0.58 µg/mL)	CCCOc1cccc(Oc2cc3c(cc2NS(=O)(=O)c2ccc(OC)c(OC)c2)n(C)c(=O)n3C)c1	

Source: ChEMBL document CHEMBL3774340, “Structure-Guided Design of IACS-9571, a Selective High-Affinity Dual TRIM24-BRPF1 Bromodomain Inhibitor” (J Med Chem, 2016)
